The source of these data is US8541407B2 (ArQule, Inc., priority 2010, dated 2013).

The structures appear in SMILES notation.

Sequence of AKT1 (P31749 whole entry): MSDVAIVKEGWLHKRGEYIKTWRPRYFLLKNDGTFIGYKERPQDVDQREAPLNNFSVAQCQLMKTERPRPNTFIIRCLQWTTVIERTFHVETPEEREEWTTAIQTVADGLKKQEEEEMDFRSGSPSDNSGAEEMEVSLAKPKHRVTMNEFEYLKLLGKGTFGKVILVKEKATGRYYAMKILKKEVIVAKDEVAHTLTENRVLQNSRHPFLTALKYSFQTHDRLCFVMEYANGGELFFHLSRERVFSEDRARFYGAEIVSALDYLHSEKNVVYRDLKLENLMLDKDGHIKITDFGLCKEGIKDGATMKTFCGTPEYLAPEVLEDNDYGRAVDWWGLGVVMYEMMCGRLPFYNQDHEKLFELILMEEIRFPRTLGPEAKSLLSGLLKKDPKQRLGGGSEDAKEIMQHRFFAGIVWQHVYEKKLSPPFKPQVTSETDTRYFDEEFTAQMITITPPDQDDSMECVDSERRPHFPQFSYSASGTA

This assay concerns the target AKT1 (Homo sapiens (Human), UniProt P31749). Briefly: Inactive Akt Alpha Screen Assay. Conditions: non *labeled: Akt Alpha Screen assay; read-out: AKT1 biochemical assay, IC50. In short, it runs like this:
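AKT1 activated in situ by PDK1, MAPKAPK2, lipid vesicles and ATP, then phosphorylating biotinylated crosstide for 30 min at room temperature. Stopped with 10 mM EDTA; phosphopeptide detected by AlphaScreen using phospho-AKT substrate antibody (1:350), Protein A acceptor and streptavidin donor beads, 90 min dark, ex 640/em 570 nm.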
Consider `O=C(Nc1ccc2c(c1)CCO2)NC1CCN(Cc2ccc(-c3nnc4n3-c3cccnc3Nc3ccccc3-4)cc2)CC1` [Example 175, 1-(1-(4-(9H-benzo[f]pyrido[2,3-b][1,2,4]triazolo[4,3-d][1,4]diazepin-3-yl)benzyl)piperidin-4-yl)-3-(2,3-dihydrobenzofuran-5-yl)urea], for which the IC50 was 0.53 µM.

With `O=S(=O)(Nc1ccc(-c2nnc3n2-c2cccnc2Nc2ccccc2-3)cc1)c1ccccc1` [Example 106, N-(4-(9H-benzo[f]pyrido[2,3-b][1,2,4]triazolo[4,3-d][1,4]diazepin-3-yl)phenyl)benzenesulfonamide], the IC50 turned out to be 6.6 µM.

With `COC(=O)c1ccc(-c2nnc3n2-c2cccnc2Nc2ccccc2-3)cc1` [Example 25, methyl 4-(9H-benzo[f]pyrido[2,3-b][1,2,4]triazolo[4,3-d][1,4]diazepin-3-yl)benzoate], the IC50 turned out to be 2.6 µM.

Take `O=C(NCc1ccc(-c2nnc3n2-c2cccnc2Nc2ccccc2-3)cc1)c1cccnc1` [Example 96, N-(4-(9H-benzo[f]pyrido[2,3-b][1,2,4]triazolo[4,3-d][1,4]diazepin-3-yl)benzyl)nicotinamide]: the IC50 is 0.2 µM.

For `O=C(NCc1ccc(-c2nnc3n2-c2cccnc2Nc2ccccc2-3)cc1)Nc1cccc(F)c1` [Example 122, 1-(4-(9H-benzo[f]pyrido[2,3-b][1,2,4]triazolo[4,3-d][1,4]diazepin-3-yl)benzyl)-3-(3-fluorophenyl)urea], the IC50 stood at 1.1 µM.

As to `Cc1cc(C(=O)Nc2ccc(-c3nnc4n3-c3cccnc3Nc3ccccc3-4)cc2)no1` [Example 48, N-(4-(9H-benzo[f]pyrido[2,3-b][1,2,4]triazolo[4,3-d][1,4]diazepin-3-yl)phenyl)-5-methylisoxazole-3-carboxamide], the IC50 is 0.12 µM.

As to `O=C(NC1(c2ccc(-c3nnc4n3-c3cccnc3Nc3ccccc3-4)cc2)CCC1)c1ccc(F)cc1` [Example 200, N-(1-(4-(9H-benzo[f]pyrido[2,3-b][1,2,4]triazolo[4,3-d][1,4]diazepin-3-yl)phenyl)cyclobutyl)-4-fluorobenzamide], the IC50 came to 0.61 µM.

For `CN(C)c1ccc(-c2nnc3n2-c2ccccc2Nc2ccccc2-3)cc1` [Example 21, 4-(9H-dibenzo[b,f][1,2,4]triazolo[4,3-d][1,4]diazepin-3-yl)-N,N-dimethylaniline], the IC50 was found to be 3.5 µM.

Take `O=C(Nc1ccc(-c2nnc3n2-c2cccnc2Nc2ccccc2-3)cc1)C1CCC1` [Example 57, N-(4-(9H-benzo[f]pyrido[2,3-b][1,2,4]triazolo[4,3-d][1,4]diazepin-3-yl)phenyl)cyclobutanecarboxamide]: the IC50 is 0.7 µM.

On to `O=C(C1CCCC1)N1CCN(Cc2ccc(-c3nnc4n3-c3cccnc3Nc3ccccc3-4)cc2)CC1` [Example 133, (4-(4-(9H-benzo[f]pyrido[2,3-b][1,2,4]triazolo[4,3-d][1,4]diazepin-3-yl)benzyl)piperazin-1-yl)(cyclopentyl)methanone], for which the concentration for half-maximal inhibition (IC50) stood at 3.4 µM.

Take `CC(C)CCNCc1ccc(-c2nnc3n2-c2cccnc2Nc2ccccc2-3)cc1` [Example 68, N-(4-(9H-benzo[f]pyrido[2,3-b][1,2,4]triazolo[4,3-d][1,4]diazepin-3-yl)benzyl)-3-methylbutan-1-amine]: the IC50 is 4.4 µM.

On to `Cn1cnc(S(=O)(=O)NCc2ccc(-c3nnc4n3-c3cccnc3Nc3ccccc3-4)cc2)c1` [Example 103, N-(4-(9H-benzo[f]pyrido[2,3-b][1,2,4]triazolo[4,3-d][1,4]diazepin-3-yl)benzyl)-1-methyl-1H-imidazole-4-sulfonamide], for which the IC50 worked out at 0.24 µM.

Take `O=C(NCc1ccc(-c2nnc3n2-c2cccnc2Nc2ccccc2-3)cc1)c1ccc(F)cc1` [Example 95, N-(4-(9H-benzo[f]pyrido[2,3-b][1,2,4]triazolo[4,3-d][1,4]diazepin-3-yl)benzyl)-4-fluorobenzamide]: the 50% inhibitory concentration (IC50) was 0.3 µM.

On to `c1ccc(CCN2CCN(Cc3ccc(-c4nnc5n4-c4cccnc4Nc4ccccc4-5)cc3)CC2)cc1` [Example 94, 3-(4-((4-phenethylpiperazin-1-yl)methyl)phenyl)-9H-benzo[f]pyrido[2,3-b][1,2,4]triazolo[4,3-d][1,4]diazepine], for which the IC50 was 5.8 µM.

As for `Fc1cccc(F)c1-c1nnc2n1-c1cccnc1Nc1ccccc1-2` [Example 16], the IC50 came to 28 µM.

In the case of `O=C(Nc1cccc(F)c1)NC1CCN(Cc2ccc(-c3nnc4n3-c3cccnc3Nc3ccccc3-4)cc2)CC1` [Example 178, 1-(1-(4-(9H-benzo[f]pyrido[2,3-b][1,2,4]triazolo[4,3-d][1,4]diazepin-3-yl)benzyl)piperidin-4-yl)-3-(3-fluorophenyl)urea], the IC50 came out at 0.79 µM.

For the molecule `O=C(Cc1ccccc1)N1CCN(Cc2ccc(-c3nnc4n3-c3cccnc3Nc3ccccc3-4)cc2)CC1` [Example 140, 1-(4-(4-(9H-benzo[f]pyrido[2,3-b][1,2,4]triazolo[4,3-d][1,4]diazepin-3-yl)benzyl)piperazin-1-yl)-2-phenylethanone], the IC50 was found to be 6 µM.

Regarding `CN(CCc1ccccc1)Cc1ccc(-c2nnc3n2-c2cccnc2Nc2ccccc2-3)cc1` [Example 79, N-(4-(9H-benzo[f]pyrido[2,3-b][1,2,4]triazolo[4,3-d][1,4]diazepin-3-yl)benzyl)-N-methyl-2-phenylethanamine], the IC50 was 0.78 µM.

As to `O=S(=O)(NCc1ccc(-c2nnc3n2-c2cccnc2Nc2ccccc2-3)cc1)c1cccc(F)c1` [Example 113, N-(4-(9H-benzo[f]pyrido[2,3-b][1,2,4]triazolo[4,3-d][1,4]diazepin-3-yl)benzyl)-3-fluorobenzenesulfonamide], the IC50 came out at 0.4 µM.

In the case of `O=C(Nc1ccc(-c2nnc3n2-c2cccnc2Nc2ccccc2-3)cc1)c1ccc(F)c(F)c1` [Example 37, N-(4-(9H-benzo[f]pyrido[2,3-b][1,2,4]triazolo[4,3-d][1,4]diazepin-3-yl)phenyl)-3,4-difluorobenzamide], the IC50 was determined as 0.15 µM.

Regarding `O=C(c1ccco1)N1CCN(Cc2ccc(-c3nnc4n3-c3cccnc3Nc3ccccc3-4)cc2)CC1` [Example 92, (4-(4-(9H-benzo[f]pyrido[2,3-b][1,2,4]triazolo[4,3-d][1,4]diazepin-3-yl)benzyl)piperazin-1-yl)(furan-2-yl)methanone], the IC50 amounted to 1.4 µM.

Take `Cc1cc(C(=O)N2CCN(Cc3ccc(-c4nnc5n4-c4cccnc4Nc4ccccc4-5)cc3)CC2)no1` [Example 142, (4-(4-(9H-benzo[f]pyrido[2,3-b][1,2,4]triazolo[4,3-d][1,4]diazepin-3-yl)benzyl)piperazin-1-yl)(5-methylisoxazol-3-yl)methanone]: the IC50 turned out to be 2.9 µM.

As for `COc1ccccc1C(=O)Nc1ccc(-c2nnc3n2-c2cccnc2Nc2ccccc2-3)cc1` [Example 41, N-(4-(9H-benzo[f]pyrido[2,3-b][1,2,4]triazolo[4,3-d][1,4]diazepin-3-yl)phenyl)-2-methoxybenzamide], the IC50 is 0.52 µM.

`CC(=O)NC1CCN(Cc2ccc(-c3nnc4n3-c3cccnc3Nc3ccccc3-4)cc2)C1` (stereo not drawn) [Example 86, N-(1-(4-(9H-benzo[f]pyrido[2,3-b][1,2,4]triazolo[4,3-d][1,4]diazepin-3-yl)benzyl)pyrrolidin-3-yl)acetamide]: the IC50 came out at 3.4 µM.

For the molecule `O=C(NCc1ccc(-c2nnc3n2-c2cccnc2Nc2ccccc2-3)cc1)C1CCC1` [Example 100, N-(4-(9H-benzo[f]pyrido[2,3-b][1,2,4]triazolo[4,3-d][1,4]diazepin-3-yl)benzyl)cyclobutanecarboxamide], the IC50 came out at 1.8 µM.

`O=C1NCN(c2ccccc2)C12CCN(Cc1ccc(-c3nnc4n3-c3cccnc3Nc3ccccc3-4)cc1)CC2` [Example 162, 8-(4-(9H-benzo[f]pyrido[2,3-b][1,2,4]triazolo[4,3-d][1,4]diazepin-3-yl)benzyl)-1-phenyl-1,3,8-triazaspiro[4.5]decan-4-one]: the IC50 came to 0.95 µM.

`c1c[nH]c(-c2nnc3n2-c2cccnc2Nc2ccccc2-3)c1` [Example 4, 3-(1H-pyrrol-2-yl)-9H-benzo[f]pyrido[2,3-b][1,2,4]triazolo[4,3-d][1,4]diazepine]: the IC50 stood at 7.9 µM.

In the case of `CCOC(=O)N1CCC(NCc2ccc(-c3nnc4n3-c3cccnc3Nc3ccccc3-4)cc2)CC1` [Example 89, ethyl 4-((4-(9H-benzo[f]pyrido[2,3-b][1,2,4]triazolo[4,3-d][1,4]diazepin-3-yl)benzyl)amino)piperidine-1-carboxylate], the IC50 was determined as 2.3 µM.

In the case of `O=C(Nc1ccc(-c2nnc3n2-c2cccnc2Nc2ccccc2-3)cc1)c1cnc2ccccc2n1` [Example 55, N-(4-(9H-benzo[f]pyrido[2,3-b][1,2,4]triazolo[4,3-d][1,4]diazepin-3-yl)phenyl)quinoxaline-2-carboxamide], the IC50 worked out at 0.16 µM.

Take `CC(C)CS(=O)(=O)NC1CCN(Cc2ccc(-c3nnc4n3-c3cccnc3Nc3ccccc3-4)cc2)CC1` [Example 154, N-(1-(4-(9H-benzo[f]pyrido[2,3-b][1,2,4]triazolo[4,3-d][1,4]diazepin-3-yl)benzyl)piperidin-4-yl)-2-methylpropane-1-sulfonamide]: the IC50 was determined as 6.4 µM.

For `Cc1ccc(CN2CCN(Cc3ccc(-c4nnc5n4-c4cccnc4Nc4ccccc4-5)cc3)CC2)cc1` [Example 91, 3-(4-((4-(4-methylbenzyl)piperazin-1-yl)methyl)phenyl)-9H-benzo[f]pyrido[2,3-b][1,2,4]triazolo[4,3-d][1,4]diazepine], the IC50 is 2.8 µM.

Consider `NC1(c2ccc(-c3nnc4n3-c3cccnc3Nc3ccccc3-4)cc2)CC1` [Example 222, 1-(4-(9H-benzo[f]pyrido[2,3-b][1,2,4]triazolo[4,3-d][1,4]diazepin-3-yl)phenyl)cyclopropanamine], for which the IC50 worked out at 0.14 µM.

For `Fc1ccccc1N1CCN(Cc2ccc(-c3nnc4n3-c3cccnc3Nc3ccccc3-4)cc2)CC1` [Example 67, 3-(4-((4-(2-fluorophenyl)piperazin-1-yl)methyl)phenyl)-9H-benzo[f]pyrido[2,3-b][1,2,4]triazolo[4,3-d][1,4]diazepine], the IC50 came to 2.8 µM.
